Converted amounts (≈) assume the structure as drawn. Like-named read-outs stand apart in the source and are kept apart here.
Key:
Type in all cases: cell-based
E. faecalis ATCC 29212 = assay: MIC (broth microdilution or agar dilution, CLSI)
Procedure: (§1) Minimum inhibitory concentrations (MICs) were determined by broth microdilution method or agar dilution method following the Clinical and Laboratory Standards Institute guidelines. Standard bacterial strains were obtained from American Type Culture Collection (ATCC). Other bacterial strains were obtained from hospitals and commercial sources, so noted in Table 11. […] Specialized procedures were employed for streptococcal and anaerobic strains. All other bacterial strains were sub-cultured on blood agar plates (tryptic soy agar with 5% sheep blood, Hardy Diagnostics) and incubated overnight at 35° C. […] Suspensions were further diluted to obtain a final inoculum of 5×10^5 CFU/mL for broth microdilution experiments.

S. pyogenes ATCC 19615 = assay: MIC (broth microdilution or agar dilution, CLSI)
Procedure: as §1

K. oxytoca Clinical = assay: MIC (broth microdilution or agar dilution, CLSI)
Procedure: as §1

E. coli ATCC 25922 = assay: MIC (broth microdilution or agar dilution, CLSI)
Procedure: as §1

E. coli LptD = assay: MIC (broth microdilution or agar dilution, CLSI)
Procedure: as §1

S. aureus MMX 3035 cErmA = assay: MIC (broth microdilution or agar dilution, CLSI); settings: Staphylococcus aureus, MMX3035CERMA; S. aureus HAV#031, MMX 3035; cErmA; read-out: MIC
Procedure: as §1

S. aureus ATCC 29213 = assay: MIC (broth microdilution or agar dilution, CLSI)
Procedure: as §1

S. pneumoniae ATCC 49619 = assay: MIC (broth microdilution or agar dilution, CLSI)
Procedure: as §1

[1] = tested on: broad panel of different clinical isolates; assay: microbe, parasite or virus in culture
Procedure: as §1

E. coli ΔTolC = assay: microbe, parasite or virus in culture
Procedure: as §1

E. faecium Clinical VRE = assay: MIC (broth microdilution or agar dilution, CLSI); settings: E. faecium Clinical VRE
Procedure: (§2) Minimum inhibitory concentrations (MICs) were determined by broth microdilution method or agar dilution method following the Clinical and Laboratory Standards Institute guidelines. Standard bacterial strains were obtained from American Type Culture Collection (ATCC). Other bacterial strains were obtained from hospitals and commercial sources, so noted in Table 11. Before the start of the MIC experiment, standard and test compound stock solutions were prepared in dimethyl sulfoxide (DMSO, Aldrich D2650) at a stock concentration of 5,120 μg/mL. The compound concentration range typically employed for each experiment was 128-0.06 μg/mL (2.5% final DMSO concentration). Clindamycin was used as a comparator in all experiments and each experiment was performed in triplicate. Specialized procedures were employed for streptococcal and anaerobic strains. All other bacterial strains were sub-cultured on blood agar plates (tryptic soy agar with 5% sheep blood, Hardy Diagnostics) and incubated overnight at 35° C. Organisms were suspended in cation-adjusted Mueller-Hinton broth (CaMHB, BD 212322) and optical density was adjusted to 0.5 McFarland standard. Suspensions were further diluted to obtain a final inoculum of 5×10^5 CFU/mL for broth microdilution experiments.

S. aureus cErmA = assay: MIC (broth microdilution or agar dilution, CLSI); settings: S. aureus cErmA
Procedure: as §2

A. baumannii ATCC 19606 = assay: MIC (broth microdilution or agar dilution, CLSI); settings: A. baumannii ATCC 19606
Procedure: as §1

P. aeruginosa ATCC 27853 = assay: MIC (broth microdilution or agar dilution, CLSI); settings: P. aeruginosa ATCC 27853
Procedure: as §2

[2] = Enterococcus faecalis, ATCC29212, E. faecalis ATCC 29212, read-out: MIC
[3] = Streptococcus pyogenes, ATCC19615, S. pyogenes ATCC 19615, read-out: MIC
[4] = Klebsiella oxytoca, K. oxytoca Clinical, read-out: MIC
[5] = Escherichia coli, ATCC25922, E. coli ATCC 25922, read-out: MIC
[6] = Escherichia coli, E. coli LptD, read-out: MIC
[7] = Staphylococcus aureus, ATCC29213, S. aureus ATCC 29213, read-out: MIC
[8] = Streptococcus pneumoniae, ATCC49619, S. pneumoniae ATCC 49619, read-out: MIC
[9] = Escherichia coli, E. coli ΔTolC
[10] = Enterococcus faecium, read-out: MIC
[11] = Staphylococcus aureus, read-out: MIC

Compound | MIC (E. faecalis ATCC 29212; [2]) | MIC (S. pyogenes ATCC 19615; [3]) | MIC (K. oxytoca Clinical; [4]) | MIC (E. coli ATCC 25922; [5]) | MIC (E. coli LptD; [6]) | MIC (S. aureus ATCC 29213; [7]) | MIC (S. pneumoniae ATCC 49619; [8]) | MIC (E. coli ΔTolC; [9]) | MIC (E. faecium Clinical VRE; [10]) | MIC (S. aureus cErmA; [11]) | other results
O=C(N[C@H](CO)[C@H](O)c1ccc([N+](=O)[O-])cc1)C(Cl)Cl [Chloramphenicol] | – | – | – | – | – | – | – | – | – | – | MIC (E. faecalis ATCC 29212; Enterococcus faecalis, ATCC29212, E. faecalis HAV#005, ATCC 29212, read-out: MIC): 8 µg/mL (≈ 24.8 µM); MIC (S. pyogenes ATCC 19615; Streptococcus pyogenes, ATCC19615, S. pyogenes HAV#004, ATCC 19615, read-out: MIC): 4 µg/mL (≈ 12.4 µM); MIC (K. oxytoca Clinical; Klebsiella oxytoca, K. oxytoca HAV#450, Clinical, read-out: MIC): 8 µg/mL (≈ 24.8 µM); MIC (E. coli ATCC 25922; Escherichia coli, ATCC25922, E. coli HAV#006, ATCC 25922, read-out: MIC): 8 µg/mL (≈ 24.8 µM); MIC (E. coli LptD; Escherichia coli, E. coli HAV#040, LptD, read-out: MIC): 4 µg/mL (≈ 12.4 µM); MIC (S. aureus MMX 3035 cErmA): 16 µg/mL (≈ 49.5 µM); MIC (S. aureus ATCC 29213; Staphylococcus aureus, ATCC29213, S. aureus HAV#001, ATCC 29213, MP-549, read-out: MIC): 8 µg/mL (≈ 24.8 µM); MIC (S. pneumoniae ATCC 49619; Streptococcus pneumoniae, ATCC49619, S. pneumoniae HAV#003, ATCC 49619, read-out: MIC): 4 µg/mL (≈ 12.4 µM); MIC ([1]; Enterococcus faecalis, VRE, E. faecalis HAV#251, Clinical VRE): 4 µg/mL (≈ 12.4 µM); MIC ([1]; Enterococcus faecium, VRE, E. faecium HAV#318, VanA): 8 µg/mL (≈ 24.8 µM); MIC ([1]; Klebsiella pneumoniae, K. pneumoniae HAV#041, Clinical, KPC): > 128 µg/mL; MIC ([1]; Staphylococcus aureus, S. aureus HAV#216, Clinical, cfr): > 128 µg/mL; MIC ([1]; Staphylococcus aureus, S. aureus HAV#217, cfr): > 128 µg/mL; MIC ([1]; Staphylococcus epidermidis, S. epidermidis HAV# 275 Clinical, cfr): > 128 µg/mL; MIC ([1]; Staphylococcus epidermidis, S. epidermidis HAV# 276, cfr): > 128 µg/mL; MIC (E. coli ΔTolC; Escherichia coli, E. coli HAV#038, ΔTolC): 8 µg/mL (≈ 24.8 µM)
CS[C@H]1O[C@H]([C@H](NC(=O)[C@H]2NC[C@@H]3C[C@H](CC(C)C)CCO[C@H]32)[C@H](C)Sc2ccc(CN3CCCCC3)cc2)[C@H](O)[C@H](O)[C@H]1O [FSA-09-05-077, (4S,5aS,8S,8aR)-4-Isobutyl-N-((1S,2S)-2-((4-(piperidin-1-ylmethyl)phenyl)thio)-1-((2R,3R,4S,5R,6R)-3,4,5-trihydroxy-6-(methylthio)tetrahydro-2H-pyran-2-yl)propyl)octahydro-2H-oxepino[2,3-c]pyrrole-8-carboxamide] | 1 µg/mL (≈ 1.5 µM) | 0.125 µg/mL (≈ 0.188 µM) | 1 µg/mL (≈ 1.5 µM) | 16 µg/mL (≈ 24 µM) | 1 µg/mL (≈ 1.5 µM) | 2 µg/mL (≈ 3 µM) | 0.25 µg/mL (≈ 0.375 µM) | 4 µg/mL (≈ 6.01 µM) | 1 µg/mL (≈ 1.5 µM) | 4 µg/mL (≈ 6.01 µM) | –
CS[C@H]1O[C@H]([C@H](NC(=O)[C@H]2NC[C@@H]3C[C@H](CC(C)C)CCO[C@H]32)[C@H](C)Sc2ccc(CN3CCCC3)cc2)[C@H](O)[C@H](O)[C@H]1O [FSA-09-05-078, (4S,5aS,8S,8aR)-4-Isobutyl-N-((1S,2S)-2-((4-(pyrrolidin-1-ylmethyl)phenyl)thio)-1-((2R,3R,4S,5R,6R)-3,4,5-trihydroxy-6-(methylthio)tetrahydro-2H-pyran-2-yl)propyl)octahydro-2H-oxepino[2,3-c]pyrrole-8-carboxamide] | 1 µg/mL (≈ 1.53 µM) | 0.125 µg/mL (≈ 0.192 µM) | 2 µg/mL (≈ 3.07 µM) | 16 µg/mL (≈ 24.5 µM) | 2 µg/mL (≈ 3.07 µM) | 2 µg/mL (≈ 3.07 µM) | 0.25 µg/mL (≈ 0.383 µM) | 4 µg/mL (≈ 6.14 µM) | 1 µg/mL (≈ 1.53 µM) | 4 µg/mL (≈ 6.14 µM) | –
CNCc1ccc(S[C@@H](C)[C@@H](NC(=O)[C@H]2NC[C@@H]3C[C@H](CC(C)C)CCO[C@H]32)[C@H]2O[C@H](SC)[C@H](O)[C@@H](O)[C@H]2O)cc1 [FSA-09-05-079, (4S,5aS,8S,8aR)-4-Isobutyl-N-((1S,2S)-2-((4-((methylamino)methyl)phenyl)thio)-1-((2R,3R,4S,5R,6R)-3,4,5-trihydroxy-6-(methylthio)tetrahydro-2H-pyran-2-yl)propyl)octahydro-2H-oxepino[2,3-c]pyrrole-8-carboxamide] | 0.5 µg/mL (≈ 0.817 µM) | 0.5 µg/mL (≈ 0.817 µM) | 16 µg/mL (≈ 26.1 µM) | 16 µg/mL (≈ 26.1 µM) | 1 µg/mL (≈ 1.63 µM) | 1 µg/mL (≈ 1.63 µM) | 0.5 µg/mL (≈ 0.817 µM) | 1 µg/mL (≈ 1.63 µM) | 4 µg/mL (≈ 6.54 µM) | 8 µg/mL (≈ 13.1 µM) | –
CSC1O[C@H]([C@H](NC(=O)[C@H]2NC[C@@H]3C[C@H](CC(F)F)CCO[C@H]32)[C@H](C)Cl)C(O)[C@@H](O)[C@H]1O (some centres unmarked) [FSA-10-09-093] | – | – | – | – | – | – | – | – | – | – | MIC (E. faecalis ATCC 29212; E. faecalis ATCC 29212): 0.25 µg/mL (≈ 0.497 µM); MIC (S. pyogenes ATCC 19615; S. pyogenes ATCC 19615): 0.5 µg/mL (≈ 0.994 µM); MIC (K. oxytoca Clinical; K. oxytoca Clinical): 16 µg/mL (≈ 31.8 µM); MIC (E. coli ATCC 25922; E. coli ATCC 25922): 16 µg/mL (≈ 31.8 µM); MIC (E. coli LptD; E. coli LptD): 4 µg/mL (≈ 7.95 µM); MIC (A. baumannii ATCC 19606): 128 µg/mL (≈ 254 µM); MIC (S. aureus ATCC 29213; S. aureus ATCC 29213): 0.25 µg/mL (≈ 0.497 µM); MIC (S. pneumoniae ATCC 49619; S. pneumoniae ATCC 49619): 0.5 µg/mL (≈ 0.994 µM); MIC (E. coli ΔTolC; E. coli ΔTolC): 1 µg/mL (≈ 1.99 µM); MIC (E. faecium Clinical VRE): 8 µg/mL (≈ 15.9 µM); MIC (S. aureus cErmA): 32 µg/mL (≈ 63.6 µM); MIC (P. aeruginosa ATCC 27853): >128 µg/mL
CCCC[C@@H]1CCO[C@@H]2[C@H](CN[C@@H]2C(=O)N[C@H]([C@H](C)Cl)[C@H]2OC(SC)[C@H](O)C(O)C2O)C1 (some centres unmarked) [FSA-12-03-029] | 0.25 µg/mL (≈ 0.505 µM) | 0.06 µg/mL (≈ 0.121 µM) | 32 µg/mL (≈ 64.6 µM) | 16 µg/mL (≈ 32.3 µM) | 4 µg/mL (≈ 8.08 µM) | 0.25 µg/mL (≈ 0.505 µM) | 0.06 µg/mL (≈ 0.121 µM) | 4 µg/mL (≈ 8.08 µM) | 8 µg/mL (≈ 16.2 µM) | 8 µg/mL (≈ 16.2 µM) | –
